# Measurements: PubChem BioAssay AID2745 (NMMLSC, 2010)
# “And” between values parts separate entries of the source, which are not always exact repeats. Identical values can stand only once. The source made the active and inactive calls. The rule behind the calls is not given here.
# Experiment: concentration series on yeast TOR reporter LAP4 – cell-based, MLPCN hits, flow cytometry, dose response (AID 2745);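 note: yeast exposed to compound for three hours at 30 degrees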
# Settings: S. cerevisiae LAP4-GFP reporter, flow cytometry fluorescence; at 33 µM (top of the series)
row,SMILES,LAP4-GFP fluorescence (kMESF)
1,CC1(C(=O)NC(=S)NNC(=O)c2ccncc2)CCCCC1,4.99 kMESF (inactive)
2,O=C(NOC(=O)c1ccccc1)c1ccccc1,10.6 kMESF (inactive)
3,O=C1C2C3C=CC(CO)(O3)C2C(=O)N1c1ccccc1-c1ccccc1 (stereo unspecified),5.75 kMESF (inactive)
4,CN(O)/C=c1/ccc2c(n1)C(=O)C=CC=2,17.5 kMESF (inactive)
5,O=c1c2cc(Br)ccc2nc(-c2ccc([N+](=O)[O-])cc2)n1O,6.81 kMESF (inactive)
6,CC(=O)N(C(C)=O)c1ncnc2c1c(-c1ccc(Cl)cc1)nn2C(C)(C)C,3.97 kMESF (inactive)
7,CCCc1cc(NCc2ccccn2)n2nc(C)c(-c3ccccc3)c2n1,9.24 kMESF (inactive)
8,CC(Oc1ccc2ccccc2c1)C(=O)NNC(=S)NC(=O)c1ccco1 (stereo unspecified),13.9 kMESF (inactive)
9,CCCCC1OC23CCCCC2C(C#N)(C(=N)O3)C1(C#N)C#N (stereo unspecified),3.98 kMESF (inactive)
10,C=CCOc1cccc(C(=O)/C=C2/C(=O)Nc3ccccc32)c1,8.61 kMESF (inactive)
11,COc1ccc(-c2cc3nc4n(c(=O)c3s2)CCC4)cc1,3.68 kMESF (inactive)
12,CC1(C)OC(c2ccccc2)=C/C(=C/C=C2C(=O)NC(=S)NC2=O)O1,3.03 kMESF (inactive)
13,C#CCOCCOCCOCCNc1nc(N2CCN(C(=O)CCCCCCCCCCNC(=O)[C@H](CCCCN)n3cc(CCCC(=O)O)nn3)CC2)nc(N2CCN(C(=O)CCCCCCCCCCNC(=O)[C@H](CCCN=C(N)N)n3cc(C[C@@H](C)CC)nn3)CC2)n1,5.16 kMESF (inactive)
14,CCN1/C(=C/C=C/c2sc3ccccc3[n+]2CC)Sc2ccccc21,7.72 kMESF (inactive)
15,CCOC(=O)Cn1cc(/C=C/[N+](=O)[O-])c2ccccc21,8.42 kMESF (inactive)
16,CCOc1ccc(C(C)=O)cc1N1C(=O)C2C3C=CC(O3)C2C1=O (stereo unspecified),14 kMESF (inactive)
17,CN(C)c1ccc(/C=C/c2cc[n+](C)cc2)cc1,1.33 kMESF (inactive)
18,O=C(NC(=S)Nc1ccc2oc(=O)ccc2c1)c1cccc(Cl)c1,3.47 kMESF (inactive)
19,O=C(OCn1ncc(Br)c(Br)c1=O)c1ccccc1Cl,10.5 kMESF (inactive)
20,CCn1c(/C=C/c2ccc([N+](=O)[O-])o2)nc2ccccc2c1=O,-69.5 kMESF (inactive)
21,O=C1N(c2ccccc2C(F)(F)F)OC1(Cc1ccccc1)c1ccccc1 (stereo unspecified),4.48 kMESF (inactive)
22,O=C(OCC(=O)N1CCN(C(=O)c2ccco2)CC1)c1cc(-c2ccc(F)cc2)nc2ccccc12,9.57 kMESF (inactive) and 4.75 kMESF (inactive)

row,SMILES,LAP4-GFP fluorescence (kMESF)
1,COc1ccc2c(c1)S/C(=C\C(=O)c1ccncc1)N2C,4.85 kMESF (inactive)
2,O=C1c2cccc3c([N+](=O)[O-])ccc(c23)C(=O)N1c1ccccn1,7.78 kMESF (inactive)
3,COc1cc(N=c2ssnc2Cl)c(OC)cc1Cl,13.4 kMESF (inactive) and 13.8 kMESF (inactive)
4,Cc1ccc2c(c1)c(/C=C/c1cc[n+](C)cc1)c(C)n2C,4.11 kMESF (inactive)
5,Cc1ccc(-c2nc(N)c3c(-c4ccc(C)cc4)nn(C(C)(C)C)c3n2)cc1,3.37 kMESF (inactive)
6,O=C(Oc1oc(-c2ccco2)nc1C=Nc1ccccc1)c1ccco1,23.7 kMESF (inactive)
7,COc1ccccc1NC1=C(Cl)C(=O)N(c2ccccc2)C1=O,2.98 kMESF (inactive)
8,O=C(/C=C/c1cccc([N+](=O)[O-])c1)c1ccc([N+](=O)[O-])o1,2.78 kMESF (inactive)
9,CCCCNc1c2c3c(cccc3n(C)c1=O)C(=O)c1ccccc1-2,11.2 kMESF (inactive)
10,N=C1/C(=C\c2coc3ccccc3c2=O)C(=O)N=C2SC(c3ccncc3)=NN12,-3.74 kMESF (inactive)
11,O=C1C(Cl)=C(Nc2ccccc2O)C(=O)N1CCc1ccccc1,5.01 kMESF (inactive)
12,O=C1C=CC(=O)N1c1ccc(Sc2ccc([N+](=O)[O-])cc2)cc1,5.47 kMESF (inactive)
13,O=C(Nc1cccc(-c2csc(Nc3ccccc3)n2)c1)c1ccccc1,4.18 kMESF (inactive)
14,CC[C@]1(c2ccccc2C)ON(c2ccccc2C(F)(F)F)C1=O,3.33 kMESF (inactive)
15,CC(OC(=O)c1ccco1)C(=O)Nc1nc(-c2ccccc2)cs1 (stereo unspecified),3.33 kMESF (inactive)
16,COc1ccccc1C(=O)NNC(=S)NC(=O)c1ccco1,13.2 kMESF (inactive)
17,O=C1C(Cl)=C(NCCc2ccccc2)C(=O)N1CCc1ccccc1,5.91 kMESF (inactive)
18,O=C(COc1ccccc1)N1CCN(c2ncnc3c2cnn3-c2ccccc2)CC1,3.38 kMESF (inactive)
19,CCCc1cc(=O)oc2cc(C)cc(OCC(=O)NC3CC3)c12,3.74 kMESF (inactive)
20,COc1ccc(N2CCN(C(=O)c3ccccc3)CC2)c([N+](=O)[O-])c1,6.87 kMESF (inactive)
21,Cc1cc(/C=C2/SC(=S)N(c3cccc(Cl)c3)C2=O)c(C)n1-c1cccnc1,10.5 kMESF (inactive)
22,Cc1ccnc(N2C(=O)c3cccc4c([N+](=O)[O-])ccc(c34)C2=O)c1,33.2 kMESF (inactive)

row,SMILES,LAP4-GFP fluorescence (kMESF)
1,C[C@H]1C[C@@H](C)C(=O)[C@@H]([C@H](O)CC2CC(=O)NC(=O)C2)C1,7.12 kMESF (inactive)
2,CC(C)CC(=O)NC(=S)Nc1nc(-c2ccccc2)cs1,3.44 kMESF (inactive)
3,Cc1ccc2nc(/C(C#N)=C/c3ccc(O)c(O)c3)[nH]c2c1,4.39 kMESF (inactive)
4,Cc1nn2c(-c3ccncc3)nnc2c2ccccc12,3.34 kMESF (inactive)
5,Oc1c(CN2CCN(c3ccc(F)cc3)CC2)cc(Cl)c2cccnc12,13.1 kMESF (inactive)
6,CC(=O)N(\C=C/C=C/C=C1\Sc2ccccc2C1=O)c1ccccc1,14.2 kMESF (inactive)
7,O=C(O)c1ccccc1SC1CC(=O)N(c2ccc3c(c2)OCO3)C1=O (stereo unspecified),5.3 kMESF (inactive)
8,COc1ccc(N=Cc2nc(-c3ccccc3)oc2OC(C)=O)cc1,4.93 kMESF (inactive)
9,CCCc1ccc(OCC(=O)NNC(=S)NC(=O)c2ccco2)cc1,11.2 kMESF (inactive)
10,Cc1ccc(S(=O)(=O)N2CCCC2C(=O)NCc2ccncc2)cc1 (stereo unspecified),4.58 kMESF (inactive)
11,CCCCOc1ccc(C(=O)NNC(=S)NC(=O)CC)cc1,9.81 kMESF (inactive)
12,O=C(Nc1ccc(N2CCOCC2)cc1)C1CCN(S(=O)(=O)c2ccc3c(c2)OCCO3)CC1,3.78 kMESF (inactive)
13,O=C(COc1ccccc1)NNC(=S)NC(=O)c1ccccc1,4.36 kMESF (inactive)
14,COc1ccccc1N=Cc1nc(-c2ccccc2)oc1OC(C)=O,8.6 kMESF (inactive)
15,CCOC(=O)CS(=O)(=O)c1nc(-c2ccccc2)cc(C(F)(F)F)n1,19.9 kMESF (inactive)
16,COc1ccc(C2=CC3=C(Br)C(=O)C(C)(O)C(=O)C3=CO2)cc1 (stereo unspecified),0.34 kMESF (inactive)
17,O=[N+]([O-])c1ccc(Sc2nc3ccccc3o2)c([N+](=O)[O-])c1,4.88 kMESF (inactive)
18,O=C(CS(=O)c1ccccc1[N+](=O)[O-])Oc1ccc(Br)cc1 (stereo unspecified),21.8 kMESF (inactive)
19,N#C/C(=C\c1ccccn1)c1nc2ccccc2s1,15.1 kMESF (inactive)
20,O=[N+]([O-])c1cc(CN2CCN(c3cccc(C(F)(F)F)c3)CC2)c2cccnc2c1O,7.46 kMESF (inactive)
21,CCN(CC)c1ccc2cc(-c3nc(-c4ccc(OC)cc4)cs3)c(=O)oc2c1,1.57 kMESF (inactive)
22,COc1ccc(NC2=C(Cl)C(=O)N(CCc3ccccc3)C2=O)cc1,5.81 kMESF (inactive)

row,SMILES,LAP4-GFP fluorescence (kMESF)
1,Cc1ccc(/C(N)=N/OC(=O)c2ccc(F)cc2)cc1,5.21 kMESF (inactive)
2,COc1cc(/C=C/c2ccc3c(Br)cc(Br)c(O)c3n2)ccc1O,11.7 kMESF (inactive)
3,O=C(/C=C/c1cccc(Cl)c1)c1nc2ccccc2[nH]1,4.71 kMESF (inactive)
4,Cc1[nH]c2ccccc2c1C(=O)COC(=O)c1ccc([N+](=O)[O-])s1,6.02 kMESF (inactive)
5,COc1ccccc1-c1nc2s/c(=C\c3cccs3)c(=O)n2n1,5.46 kMESF (inactive)
6,O=C(/C=C/c1ccccc1Cl)c1ccccc(=O)c1O,-5.15 kMESF (inactive)
7,O=C(c1ccc(Cl)c([N+](=O)[O-])c1)N1CCN(c2ccccc2)CC1,8.26 kMESF (inactive)
8,O=c1cc(-c2ccccc2)cc(-c2ccccc2)n1O,5.91 kMESF (inactive)
9,COc1ccc(N2C(=O)CC(Sc3ncn[nH]3)C2=O)c(OC)c1 (stereo unspecified),13.7 kMESF (inactive)
10,Cc1cc(C)c(S(=O)(=O)N2CCC(C(=O)NCc3ccc(Cl)cc3Cl)CC2)c(C)c1,4.35 kMESF (inactive)
11,COc1ccc(NC(=O)/C(C#N)=C/c2ncc([N+](=O)[O-])n2C)c(OC)c1,9.76 kMESF (inactive)
12,O=C1NC(=O)N(CCc2ccc(F)cc2)C(=O)/C1=C/c1cccs1,9.69 kMESF (inactive)
13,Cc1cc(=O)n2c3c(sc2n1)C(=O)N(Cc1ccccc1)C3=O,9.31 kMESF (inactive)
14,CC[C@]1(c2ccccc2OC)ON(c2ccccc2C(F)(F)F)C1=O,7.52 kMESF (inactive)
15,COc1ccc(C(=O)/C=C2/C(=O)Nc3ccccc32)cc1OC,4.19 kMESF (inactive)
16,Nc1c(C(=O)c2cccs2)sc2nsc(SCCN3CCCCC3)c12,-1.87 kMESF (inactive)
17,C=CCN1C(=O)/C(=C/c2ccc(-c3ccc(F)cc3)o2)SC1=S,15 kMESF (inactive)
18,CCCCCn1c(=O)c(C(=O)Nc2nc3ccccc3[nH]2)c(O)c2ccccc21,2.43 kMESF (inactive)
19,Cc1ccc2[nH]c(C)c(/C=C/c3cc[n+](C)cc3)c2c1,8.71 kMESF (inactive)
20,Oc1c(CN2CCCCC2)cc(Br)c2cccnc12,16 kMESF (inactive)
